# “Also recorded” adds a separate entry of the source.
# Columns and labels:
# GPR3 = biological target: T1, GPR3 (Homo sapiens, UniProt P46089); test: GloSensor cAMP assay in GPR3 stably expressing AD293 cell line (agonist mode); type: cell-based; conditions: for maximum response: Table S2, relative cAMP level, at 500 μM (FA 12:0, 16:1, 18:0, OEA 18:1, OLM 18:1), 450 μM (FA 18:1), 400 μM (FA 16:0), 300 μM (FA 22:0, 18:2), 100 μM (FAME 18:0, FAEE 18:0, lysophospholipids), 3 μM (LTB4); for EC50: cAMP induction; for EC50 / cAMP induction activity (in words): GPR3 stably expressing AD293
# T1 construct: expressed in transfected cells
# Experimental: The GloSensor cAMP assay was performed according to the instructions of Promega. AD293 cells were split into 6-well plate (300,000 cells/mL) and then transfected with the pGloSensor™-22F cAMP plasmid and pcDNA3-GPR3 plasmid by Lipofectamine 2000, at a ratio of 2:1 (μL:μg). 24 h after transfection, cells were split into 96-well plate for another 24 h incubation. After removal of cell medium, 90 μL of 3% v/v (the GloSensor cAMP reagent vs serum-free medium) substrate was added into each well. After 2 h incubation at RT, background measurements were taken, and then 10 μL 10× stock compounds were added for the second measurements of ligand activation via EnVision 2105 (PerkinElmer). Relative cAMP level was calculated by the cAMP level after addition of ligand divided by the cAMP level before addition of ligand (basal level). Stock FAs (i.e., 10–50 mM) were solubilized in DMSO, then diluted in cell culture buffer to designated concentrations and sonicated to ensure that they were evenly distributed in the buffer before being added to cells.
# AD293 cells were split into 6-well plate (300,000 cells/mL), and then transfected with the pGloSensor™-22F cAMP plasmid and the pcDNA6-GPR3-3× FLAG plasmid (WT receptor or the mutants, F120A^3.36, W260A^6.48, L283F^7.39, A201W^5.46, Y280A^7.36, H96A^2.60 and H96A^2.60/Y280A^7.36) by Lipofectamine 2000 at a ratio of 2:1 (μL:μg). Geneticin (2 mg/mL) and blasticidin (20 μg/mL) were used to select colonies that stably express both GPR3 and GloSensor 22F. The cell culture medium containing antibiotics was changed every 2 days till well-separated colonies appeared. Then individual single colony was picked by a small piece of sterilized filter paper soaked with trypsin and separately cultured in a single well of 24-well plate. At least 24 candidate colonies were selected for each mutant and WT. After several days of culture, each colony was triplicated. One of the triplicates was used for western blot analysis, another for the GloSensor cAMP assay, and the remaining one was stored for staining. The colonies with top scores in both expression (western blot) and functional assay were selected as the representative colonies for each mutant or WT for further analysis.
# GPR6 = biological target: T2, GPR6 (Homo sapiens, UniProt P46095); test: GloSensor cAMP assay in GPR6 stably expressing AD293 cell line; type: cell-based; conditions: lipid concentration 300 μM
# T2 construct: FLAG; expressed in transfected cells
# [1] = tested on: Gs/cAMP/PKA signaling in iBAT; test: Ex vivo iBAT of WT mice, p-PKA substrate immunoblot; type: cell-based, mouse; conditions: WT iBAT at 4 °C; lipid 1 mM (OA also 5 mM), up to 4 h
# Experimental: iBAT was isolated from C57BL/6N mice at 4-6 weeks old and cut into 10 mg pieces. […] Another group of iBAT pieces were incubated in DMEM medium at 4 °C, and treated with different doses of OA (0 mM, 1 mM, 5 mM) for 4 h. OA (Sigma, O1008) was dissolved in serum-free DMEM (Gibco, high glucose, 12100046) by using an ultrasonic cleaner at 40 °C for 10 min.
# T1 sequence (P46089 whole entry): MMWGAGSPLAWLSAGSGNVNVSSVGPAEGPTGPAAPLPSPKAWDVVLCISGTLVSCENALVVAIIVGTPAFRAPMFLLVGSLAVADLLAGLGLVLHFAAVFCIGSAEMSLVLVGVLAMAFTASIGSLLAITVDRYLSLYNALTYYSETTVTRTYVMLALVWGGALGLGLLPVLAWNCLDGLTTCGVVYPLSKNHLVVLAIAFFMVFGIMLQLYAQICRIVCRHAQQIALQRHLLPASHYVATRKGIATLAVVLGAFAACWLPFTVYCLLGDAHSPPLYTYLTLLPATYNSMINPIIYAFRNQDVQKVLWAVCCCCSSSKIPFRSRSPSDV
# T2 sequence (P46095 whole entry, species assumed): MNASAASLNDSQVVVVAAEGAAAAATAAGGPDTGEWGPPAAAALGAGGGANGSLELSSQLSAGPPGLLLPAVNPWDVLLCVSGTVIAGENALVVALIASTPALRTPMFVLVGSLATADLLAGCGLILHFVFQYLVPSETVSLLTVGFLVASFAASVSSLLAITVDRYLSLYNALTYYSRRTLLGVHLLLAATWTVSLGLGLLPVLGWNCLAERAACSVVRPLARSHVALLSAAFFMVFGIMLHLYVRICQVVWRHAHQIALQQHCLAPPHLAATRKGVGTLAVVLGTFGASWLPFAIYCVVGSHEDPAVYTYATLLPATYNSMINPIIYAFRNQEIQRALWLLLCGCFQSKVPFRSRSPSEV
maximum response (GPR3),Emax compared to Emax of OA (GPR3; cAMP assay),EC50 (GPR3),GPR6 activation (in words) (GPR6),Molecule,Emax / receptor activation compared to PAL (GPR3; cAMP assay),cAMP induction activity (in words) (GPR3),Gs/cAMP/PKA signaling (phosphorylation of PKA substrates) [1]
61.8,,328 µM,strongly activated GPR6,"CCCCCC/C=C\CCCCCCCC(=O)O [PML, palmitoleic acid]",half of the Emax of PAL; also recorded: substantially decreased receptor activation compared to PAL,,
0.6,,,,"CCCCCCCCCCCCC/C=C/[C@@H](O)[C@@H](N)COP(=O)(O)O [S1P, sphingosine-1-phosphate]",,none of the lysophospholipids that we tested exhibited cAMP induction activity,
44.8,about 1/3,361 µM,,"CCCCCCCCCCCCCCCCCC(=O)O [STE, stearic acid]",,weak activity,neither STE nor LIN induced Gs/cAMP/PKA signaling

# More lines, now with the values behind:
Molecule,maximum response (GPR3),Emax compared to Emax of OA (GPR3; cAMP assay),EC50 (GPR3),GPR6 activation (in words) (GPR6),Emax / receptor activation compared to PAL (GPR3; cAMP assay),cAMP induction activity (in words) (GPR3),Gs/cAMP/PKA signaling (phosphorylation of PKA substrates) [1]
"CCCCCCCC/C=C\CCCCCCCC(=O)NCCO [OEA, oleoylethanolamide]",60.9,half of the Emax of OA,336 µM,,,,
"CCCCCCCC/C=C\CCCCCCCC(N)=O [OLM, Oleamide]",75.1,half of the Emax of OA,334 µM,,,,
"CCCCCCCCCCCCCCCC(=O)O [PAL, palmitic acid]",118.7,slightly lower Emax than OA,311 µM,,,,
LPA 16:0,0.5,,,,,none of the lysophospholipids that we tested exhibited cAMP induction activity,
LPA 18:1,0.5,,,,,none of the lysophospholipids that we tested exhibited cAMP induction activity,
LPC 14:0,1.8,,,,,none of the lysophospholipids that we tested exhibited cAMP induction activity,

# From article PMC10907358, “Identification of oleic acid as an endogenous ligand of GPR3” (Cell Research, 2024)
